Experiments:
[1] = system: HER3 mRNA; assay: real-time qPCR of HER3 mRNA; format: cell-based, human; settings: for HER3 mRNA/protein or pHER3: data not shown
Protocol: FIG. 12B depicts a bar chart of timed HER3 mRNA transcription in BT474 cells which were treated with 2 μM 5J8, 20 μM LY294002, and 50 nM rapamycin for 10 hours prior to RNA isolation and qPCR analysis with HER3-specific primers.

[2] = system: HER3 mRNA; settings: ovarian cancer cells; cited from earlier work
[3] = system: BT474 xenografts; assay: BT474 xenograft experiments; format: in vivo, mice; settings: trastuzumab 30 mg/kg twice-a-week i.p.; lapatinib 100 mg/kg daily; compound A 100 mg/kg daily gavage; 28 days
Protocol: Tumor volumes were recorded twice-a-week. Each data point represents the mean tumor volume in mm^3±SE of 8 mice per type of treatment. CR=complete response to treatment.
Animal experiments were approved by the Institutional Animal Care Committee of Vanderbilt University Medical Center (VUMC). Mice were housed in the accredited Animal Care Facility of the VUMC. A 17β-estradiol pellet (Innovative Research of America) was injected subcutaneously (s.c.) into each 6- to 7-week-old athymic female mice (Harlan Sprague Dawley, Inc.) the day before tumor cell injection. BT474 cells (3×10^6) mixed 1:1 with Matrigel (BD Biosciences) were injected s.c. into the right flank of each mouse. Tumor diameters were measured with calipers twice-a-week and volume in mm^3 calculated with the formula: volume=width^2×length/2. […] Mice were euthanized after 28 days of treatment.
There was no significant drug-related toxicity in any of the treatment arms.

[4] = system: HER3, pHER3^Y1289, pAKT^S473; assay: immunohistochemistry of BT474 xenografts; format: in vivo, mice; settings: day 28
Protocol: FIG. 18B depicts photomicrographs of immunohistochemistry sections from formalin-fixed, paraffin-embedded tumor blocks. Xenografts were harvested on day 28, 1 hour after the last dose of lapatinib and/or compound A. Antibodies used were against HER3, pHER3^Y1289, and pAKT^S473. Photographs were taken at 400× magnification (scale bar: 50 μm).
All tumor samples (collected within 1 hour of last treatment) were fixed in 10% neutral buffered formalin for 24 hours at room temperature, followed by dehydration and paraffin embedding. Immunostaining was done on 5-μm tissue sections. After deparaffinization in xylene and graded alcohols heat-induced antigen retrieval was performed in a pH 6.0 citrate buffer followed by incubation with 3% hydrogen peroxide for 20 minutes, with protein block (Dako) for 10 minutes, and finally with primary antibody overnight at 4° C. The Envision Visualization System (Dako, Carpinteria, Calif., USA) was used, followed by DAB as chromagen and counterstained with hematoxylin. Tumor sections were studied on a light microscope with an ocular magnification of 400 times. Average percentage and intensity of tumor cell staining was calculated as a histoscore (H-score) (as described in Goulding, H., et al. (1995), Hum. Pathol. 26:291-294, which is incorporated herein by reference in its entirety). An expert pathologist (MGK) scoring the sections was blinded to the type of treatment.
Using immunohistochemistry (IHC), experiments were performed to examine pharmacodynamic biomarkers of target inactivation in xenografts after 28 days of treatment. […] Therefore, experiments were performed to quantify differences in pAKT^S473 expression in both cytoplasmic and nuclear compartments in xenograft sections.

In the case of `O=C(NOCC1CC1)c1ccc(F)c(F)c1Nc1ccc(I)cc1Cl` [CI-1040], the “HER3 mRNA/protein or pHER3” value [1] is reported as “did not upregulate HER3 mRNA/protein or pHER3”.
For `CS(=O)(=O)N1CCN(Cc2cc3nc(-c4cccc5[nH]ncc45)nc(N4CCOCC4)c3s2)CC1` [GDC-0941], the “HER3 mRNA downregulation by heregulin” value [2] is given as “blocked downregulation of the HER3 mRNA”.
With `CO[C@H]1C[C@@H]2CC[C@@H](C)[C@@](O)(O2)C(=O)C(=O)N2CCCC[C@H]2C(=O)O[C@H]([C@H](C)C[C@@H]2CC[C@@H](OCCO)[C@H](OC)C2)CC(=O)[C@H](C)/C=C(\C)[C@@H](O)[C@@H](OC)C(=O)[C@H](C)C[C@H](C)/C=C/C=C/C=C/1C` [RAD001, everolimus] the “HER3 mRNA/protein or pHER3” value [1] was “did not upregulate HER3 mRNA/protein or pHER3”.
For `CS(=O)(=O)CCNCc1ccc(-c2ccc3ncnc(Nc4ccc(OCc5cccc(F)c5)c(Cl)c4)c3c2)o1` [lapatinib, reference compound], the “HER3 mRNA levels” value ([1]; BT474, compound A 6 μM, lapatinib 1 μM, trastuzumab 10 μg/ml, 10 hours) was “markedly induced HER3 mRNA”, the “tumor growth, monotherapy” value [3] was “significantly delayed tumor growth” and the “pHER3 by IHC” value [4] was “more effective than trastuzumab in reducing pHER3”.

— patent US9011863B2, “Combinations of kinase inhibitors for the treatment of cancer” (Exelixis, Inc., priority 2010, dated 2015)
